Measurements from patent US20230346745A1, “AGENT FOR PREVENTING OR TREATING TAUOPATHY” (FUJIFILM Toyama Chemical Co., Ltd., priority 2017, published 2023).

How the values were obtained:
Format in all cases: in vivo, human
[1] = tested on: Aβ-38; assay: Phase II placebo-controlled trial: cerebrospinal fluid biomarker Aβ-38; settings: CSF, mild to moderate AD patients
Text: (§1) Test Example 1 Multicenter randomized double-blind phase II placebo-controlled trial for assessing effectiveness and safety of Compound A in mild to moderate AD patients Subject (selection criteria): Patients were screened in a period from 42 days before treatment assignment to the assignment based on the following selection criteria. • Patients who were probable AD and are 55 years old or older and 85 years old or younger at the time of obtaining consent of screening. • Patients with an MMSE score of 12 to 22 at the time of screening • Patients with a Modified Hachinski Ischemia Scale score of 4 or less • Patients who have been treated with a donepezil hydrochloride or rivastigmine transdermal system for at least 4 months before the baseline and with a stable dose thereof for 3 months before the baseline. • In the case of patients who have received memantine in addition to being treated with a donepezil hydrochloride or rivastigmine transdermal system, patients who have been treated with memantine for at least 4 months before the baseline and with a stable dose thereof for 3 months before the baseline. • Patients whose brain MRI or CT results match AD at the time of screening Organization of groups: Patients matched (484 patients) were randomly divided into the following 3 groups and the trial was started. (1) High dose group: 224 mg of a test compound (160 mg in terms of Compound A) was orally administered once a day for 4 weeks and then 448 mg of a test compound (320 mg in terms of Compound A) was orally administered once a day for 48 weeks (158 patients) (2) Low dose group: 224 mg of a test compound (160 mg in terms of Compound A) was orally administered once a day for 52 weeks (166 patients) (3) Placebo group: placebo was orally administered once a day for 52 weeks (158 patients) Method of assessment: Cerebrospinal fluid biomarker
(§2) Cerebrospinal fluid was collected by lumber puncture from subjects at baseline (within 2 weeks before the first day of administration of investigational drug) and after 52 weeks (within 2 weeks before week 52), and divided into 9-ml aliquots in polyethylene tubes and stored at -80° C. The total tau protein concentration (total-Tau) in the cerebrospinal fluid was measured by an ECL method. The phosphorylated tau protein concentration (p-Tau) was measured by ELISA method. The Aβ-42 value in the cerebrospinal fluid was measured by sandwich ELIZA which has been designed for measurement of AP including 1 amino acid and 42 amino acids.
(§3) Change in cerebrospinal fluid (CSF) biomarkers at week 52 from the baseline was compared by analysis of covariance between a high dose group and a placebo group, and between a low dose group and the placebo group. […]

[2] = tested on: Aβ-40; assay: Phase II placebo-controlled trial: cerebrospinal fluid biomarker Aβ-40; settings: CSF, mild to moderate AD patients
Text: as §1, §2, §3

[3] = tested on: Aβ-42; assay: Phase II placebo-controlled trial: cerebrospinal fluid biomarker Aβ-42 (sandwich ELISA); settings: CSF, mild to moderate AD patients
Text: as §1, §2, §3

[4] = tested on: phosphorylated tau protein (p-Tau); assay: Phase II placebo-controlled trial: cerebrospinal fluid biomarker p-Tau (ELISA); settings: for p-Tau change at week 52 from baseline, difference from placebo group / p-Tau change at week 52 from baseline, least square means (standard error): CSF
Text: as §1, §2
(§4) Change in cerebrospinal fluid (CSF) biomarkers at week 52 from the baseline was compared by analysis of covariance between a high dose group and a placebo group, and between a low dose group and the placebo group. For models, the baseline of cerebrospinal fluid (CSF) biomarkers was included as a covariate and the significance level was 5%.

[5] = tested on: total tau protein (total-Tau); assay: Phase II placebo-controlled trial: cerebrospinal fluid biomarker total-Tau (ECL method, measured twice); settings: CSF, AD patients; for total-Tau change at week 52 from baseline, difference from placebo group / total-Tau change at week 52 from baseline, least square means (standard error): First measurement (Table 2); for total-Tau (remeasured) change at week 52 from baseline, difference from placebo group / total-Tau (remeasured) change at week 52 from baseline, least square means (standard error): Total-Tau concentration remeasured (Table 3)
Text: as §1, §2
(§5) The total-Tau concentration was measured twice using the same cerebrospinal fluid sample.
as §4

[6] = tested on: p-Tau/total-Tau; assay: Phase II placebo-controlled trial: ratio p-Tau/total-Tau in cerebrospinal fluid; settings: CSF, AD patients; for p-Tau/total-Tau change at week 52 from baseline, difference from placebo group / p-Tau/total-Tau change at week 52 from baseline, least square means (standard error): First total-Tau measurement (Table 2); for p-Tau/total-Tau (remeasured total-Tau) change at week 52 from baseline, difference from placebo group / p-Tau/total-Tau (remeasured total-Tau) change at week 52 from baseline, least square means (standard error): Total-Tau concentration remeasured (Table 3)
Text: as §1, §2, §5, §4

[7] = tested on: Aβ; assay: Phase II placebo-controlled trial: concentration of Aβ in cerebrospinal fluid (overall statement); settings: Compound A group compared to the placebo group; mild to moderate AD patients
Text: as §1, with “(1) High dose group: 224 mg of a test compound (160 mg in terms of Compound A) was orally administered once a day for 4 weeks and then 448 mg of a test compound (320 mg in terms of Compound A) was orally administered once a day for 48 weeks (158 patients) (2) Low dose group: 224 mg of a test compound (160 mg in terms of Compound A) was orally administered once a day for 52 weeks (166 patients) (3) Placebo group: placebo was orally administered once a day for 52 weeks (158 patients) Method of assessment: Cerebrospinal fluid biomarker” left out

[8] = High dose group: 160 mg 4 weeks then 320 mg 48 weeks in terms of Compound A, oral once a day
[9] = Low dose group: 160 mg in terms of Compound A, oral once a day 52 weeks
[10] = High dose group: 160 mg 4 weeks then 320 mg 48 weeks in terms of Compound A, oral once a day, mild to moderate AD patients
[11] = Low dose group: 160 mg in terms of Compound A, oral once a day 52 weeks, mild to moderate AD patients

## OC1CN(CCCOCCc2ccc3sccc3c2)C1 [Compound A, 1-(3-(2-(1-benzothiophen-5-yl)ethoxy)propyl)azetidin-3-ol]
[1]; [8]
  Aβ-38 change at week 52 from baseline, difference from placebo group: 525.66 pg/mL
  Aβ-38 change at week 52 from baseline, least square means (standard error): 178.64(221.978) pg/mL
[1]; [9]
  Aβ-38 change at week 52 from baseline, difference from placebo group: 127.43 pg/mL
  Aβ-38 change at week 52 from baseline, least square means (standard error): −219.58(266.774) pg/mL
[2]; [8]
  Aβ-40 change at week 52 from baseline, difference from placebo group: 1206.87 pg/mL
  Aβ-40 change at week 52 from baseline, least square means (standard error): 290.84(466.956) pg/mL
[2]; [9]
  Aβ-40 change at week 52 from baseline, difference from placebo group: 75.71 pg/mL
  Aβ-40 change at week 52 from baseline, least square means (standard error): −840.32(559.467) pg/mL
[3]; [8]
  Aβ-42 change at week 52 from baseline, difference from placebo group: 32.90 pg/mL
  Aβ-42 change at week 52 from baseline, least square means (standard error): 11.55(25.578) pg/mL
[3]; [9]
  Aβ-42 change at week 52 from baseline, difference from placebo group: 11.65 pg/mL
  Aβ-42 change at week 52 from baseline, least square means (standard error): −9.70(30.362) pg/mL
[4]; Compound A group compared to the placebo group, mild to moderate AD patients
  change in the concentration of p-Tau in the cerebrospinal fluid at week 52 from the baseline: consistently tended to be decreased in a dose-dependent manner
[4]; Compound A high dose group versus placebo group, analysis of covariance, significance level 5%
  change in the concentration of p-Tau in the cerebrospinal fluid at week 52 from the baseline, statistical comparison: statistically significant difference
[4]; [10]
  p-Tau change at week 52 from baseline, difference from placebo group: -7.59 pg/mL
  p-Tau change at week 52 from baseline, least square means (standard error): −7.30(2.281) pg/mL
[4]; [11]
  p-Tau change at week 52 from baseline, difference from placebo group: -4.23 pg/mL
  p-Tau change at week 52 from baseline, least square means (standard error): −3.94(2.715) pg/mL
[5]; [8]
  total-Tau change at week 52 from baseline, difference from placebo group: 81.94 pg/mL
  total-Tau change at week 52 from baseline, least square means (standard error): 11.38(47.304) pg/mL
  total-Tau (remeasured) change at week 52 from baseline, difference from placebo group: -129.57 pg/mL
  total-Tau (remeasured) change at week 52 from baseline, least square means (standard error): −101.35 (32.552) pg/mL
[5]; [9]
  total-Tau change at week 52 from baseline, difference from placebo group: 28.19 pg/mL
  total-Tau change at week 52 from baseline, least square means (standard error): −42.36(63.947) pg/mL
  total-Tau (remeasured) change at week 52 from baseline, difference from placebo group: -36.10 pg/mL
  total-Tau (remeasured) change at week 52 from baseline, least square means (standard error): −7.88 (38.632) pg/mL
[6]; [8]
  p-Tau/total-Tau change at week 52 from baseline, difference from placebo group: −11.11%
  p-Tau/total-Tau change at week 52 from baseline, least square means (standard error): −4.47(3.21) %
  p-Tau/total-Tau (remeasured total-Tau) change at week 52 from baseline, difference from placebo group: 0.26%
  p-Tau/total-Tau (remeasured total-Tau) change at week 52 from baseline, least square means (standard error): 0.04(0.17) %
[6]; [9]
  p-Tau/total-Tau change at week 52 from baseline, difference from placebo group: −4.60%
  p-Tau/total-Tau change at week 52 from baseline, least square means (standard error): 2.04(4.33) %
  p-Tau/total-Tau (remeasured total-Tau) change at week 52 from baseline, difference from placebo group: 0.03%
  p-Tau/total-Tau (remeasured total-Tau) change at week 52 from baseline, least square means (standard error): −0.20(0.20) %
[7]
  change in the concentration of AP in the cerebrospinal fluid at week 52 from the baseline: tended to be increased in a dose dependent manner
